The target in data set [1] is T1, Replicase polyprotein 1ab (Severe acute respiratory syndrome coronavirus 2, UniProt P0DTD1). In words: Inhibition of SARS-CoV-2 3CL protease using Dabcyl-Leu-Ala-Gln-Ala-Val-Arg-Ser-Ser-Ser-Arg-Edans as substrate.
The target of data set [2] is Replicase polyprotein 1ab (Severe acute respiratory syndrome coronavirus 2) (UniProt P0DTD1). In words: Inhibition of SARS-CoV-2 3CL protease at 100 uM relative to control.
The target of data set [3] is T1, Replicase polyprotein 1ab. In words: Inhibition of SARS-CoV-2 3CL protease by FRET assay.
Data set [4] addresses Cytochrome P450 2D6 (Homo sapiens, UniProt P10635). The data set can be described thus: Inhibition of CYP2D6 (unknown origin). The class given is ADME.
In data set [5] the target is Cytochrome P450 2C9 (Homo sapiens, UniProt P11712). In words: Inhibition of CYP2C9 (unknown origin). The class given is ADME.
Cytochrome P450 2C9, sequence (P11712 whole entry): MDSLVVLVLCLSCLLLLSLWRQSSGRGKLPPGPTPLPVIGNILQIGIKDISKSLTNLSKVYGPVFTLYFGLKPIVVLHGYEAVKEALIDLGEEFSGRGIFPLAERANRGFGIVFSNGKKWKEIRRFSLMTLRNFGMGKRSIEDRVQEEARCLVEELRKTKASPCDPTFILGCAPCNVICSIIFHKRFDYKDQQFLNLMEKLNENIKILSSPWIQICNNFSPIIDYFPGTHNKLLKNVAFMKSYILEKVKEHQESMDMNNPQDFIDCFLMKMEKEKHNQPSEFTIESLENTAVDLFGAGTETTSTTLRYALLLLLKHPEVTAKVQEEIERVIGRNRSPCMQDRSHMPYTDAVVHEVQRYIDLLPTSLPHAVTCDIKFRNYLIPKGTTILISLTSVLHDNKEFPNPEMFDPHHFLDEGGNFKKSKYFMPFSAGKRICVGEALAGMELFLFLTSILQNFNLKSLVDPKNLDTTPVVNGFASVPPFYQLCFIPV
Data set [6] concerns the target T2, Cytochrome P450 1A2 (Homo sapiens, UniProt P05177).
T2 sequence (P05177 whole entry): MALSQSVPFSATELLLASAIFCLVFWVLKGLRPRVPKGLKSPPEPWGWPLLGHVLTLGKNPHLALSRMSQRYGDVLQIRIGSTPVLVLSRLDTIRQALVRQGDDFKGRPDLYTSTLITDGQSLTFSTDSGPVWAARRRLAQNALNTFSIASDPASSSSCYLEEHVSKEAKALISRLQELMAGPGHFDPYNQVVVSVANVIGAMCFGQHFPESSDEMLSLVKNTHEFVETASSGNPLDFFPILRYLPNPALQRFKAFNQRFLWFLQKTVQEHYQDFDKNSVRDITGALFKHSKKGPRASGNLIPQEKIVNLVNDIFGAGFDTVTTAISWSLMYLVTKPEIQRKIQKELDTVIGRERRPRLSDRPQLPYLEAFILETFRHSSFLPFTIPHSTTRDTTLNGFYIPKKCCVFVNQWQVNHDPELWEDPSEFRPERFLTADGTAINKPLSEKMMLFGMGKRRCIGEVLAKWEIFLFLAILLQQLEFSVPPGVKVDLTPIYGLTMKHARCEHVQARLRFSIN
The data set can be described thus: Inhibition of CYP1A2 (unknown origin). The class given is ADME.

Data set [7] can be described thus: Plasma protein binding in human assessed as unbound fraction. The data set is classed as ADME.
A short description of data set [8]: Plasma protein binding in rat assessed as unbound fraction. The class given is ADME.
Data set [9] deals with T1, Replicase polyprotein 1ab. In words: Inhibition of SARS-CoV-2 3CL protease using 2-aminobenzoyl-SVTLQSG-Tyr(NO2)-R as substrate.
A short description of data set [10]: Inhibition of SARS-CoV 3CL protease using 2-aminobenzoyl-SVTLQSG-Tyr(NO2)-R as substrate. Further details: species or system Severe acute respiratory syndrome-related coronavirus.
Data set [11] addresses Cytochrome P450 3A4 (Homo sapiens, UniProt P08684). The data set can be described thus: Inhibition of CYP3A4 (unknown origin). The data set is classed as ADME.
Data set [12] addresses T1, Replicase polyprotein 1ab. In words: Inhibition of N terminal his tagged SARS-CoV-2 3CL protease by FRET assay.
The target of data set [13] is Replicase polyprotein 1ab (Severe acute respiratory syndrome coronavirus 2) (UniProt P0DTD1). In words: Inhibition of SARS-CoV-2 3CL protease assessed as ratio of Kinact/Ki.
For data set [14], the target named is T1, Replicase polyprotein 1ab. The data set can be described thus: Inhibition of SARS-CoV-2 3CL protease using Dabcyl-KTSAVLQSGFRKME-Edans as substrate assessed as inhibition constant by flurogenic assay.

Here are results for 14 molecules from ChEMBL document CHEMBL5257019, “An Overview of Severe Acute Respiratory Syndrome-Coronavirus (SARS-CoV) 3CL Protease Inhibitors: Peptidomimetics and Small Molecule Chemotherapy” (J Med Chem, 2016).

Structures are written as SMILES.

Cytochrome P450 2D6, sequence (P10635 whole entry): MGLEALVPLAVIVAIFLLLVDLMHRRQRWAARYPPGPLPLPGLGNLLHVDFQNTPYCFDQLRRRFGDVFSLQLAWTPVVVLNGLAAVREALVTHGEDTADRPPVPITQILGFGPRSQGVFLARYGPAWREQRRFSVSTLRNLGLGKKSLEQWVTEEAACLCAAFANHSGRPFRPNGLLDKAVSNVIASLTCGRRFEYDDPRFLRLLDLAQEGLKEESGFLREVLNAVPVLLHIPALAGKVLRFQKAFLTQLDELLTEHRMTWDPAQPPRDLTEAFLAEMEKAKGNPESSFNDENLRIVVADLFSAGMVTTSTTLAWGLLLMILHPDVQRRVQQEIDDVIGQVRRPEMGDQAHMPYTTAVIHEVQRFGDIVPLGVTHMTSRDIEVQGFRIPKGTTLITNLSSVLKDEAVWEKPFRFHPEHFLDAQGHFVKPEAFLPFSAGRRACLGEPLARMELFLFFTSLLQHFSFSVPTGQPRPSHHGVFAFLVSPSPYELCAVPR
Cytochrome P450 3A4, sequence (P08684 whole entry): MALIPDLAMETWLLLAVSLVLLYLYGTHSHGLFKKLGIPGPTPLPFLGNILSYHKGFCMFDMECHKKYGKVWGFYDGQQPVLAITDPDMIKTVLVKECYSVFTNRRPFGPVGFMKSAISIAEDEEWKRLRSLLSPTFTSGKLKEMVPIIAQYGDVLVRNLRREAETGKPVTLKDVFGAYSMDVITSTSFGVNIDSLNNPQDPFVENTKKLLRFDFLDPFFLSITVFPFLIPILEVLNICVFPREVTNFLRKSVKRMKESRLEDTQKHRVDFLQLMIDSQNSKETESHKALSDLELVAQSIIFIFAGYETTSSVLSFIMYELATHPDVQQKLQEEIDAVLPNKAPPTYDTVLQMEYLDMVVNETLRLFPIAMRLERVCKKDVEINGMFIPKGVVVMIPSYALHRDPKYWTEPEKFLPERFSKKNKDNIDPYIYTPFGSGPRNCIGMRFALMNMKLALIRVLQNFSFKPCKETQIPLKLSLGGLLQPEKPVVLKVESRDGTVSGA

Broadly, the EC50 is the concentration at which the effect is half-maximal. Take `O=C(O)c1ccc(/N=C/c2c(O)ccc3c2C2CCCCC2O3)cc1` (stereo not drawn): the midpoint of the response in data set [1], the EC50, lay at 23 µM.
As usually defined, the inhibition is how much of the control response was suppressed. `CC(=O)N[C@H](C(=O)N[C@H](C(=O)N[C@@H](CC(C)C)C(=O)N[C@@H](Cc1ccccc1)C(=O)Cn1[nH]c(=O)c2ccccc2c1=O)[C@@H](C)OCc1ccccc1)C(C)C` returned an inhibition in data set [2] of 72%.
As a reminder, the IC50 is the concentration needed to halve the response being measured. Read a low IC50 as greater potency. In turn, `O=c1c(OC[C@H]2O[C@@H](O)[C@H](O)[C@@H](O)[C@H]2O)c(-c2ccc(O)c(O)c2)oc2cc(O)cc(O)c12` registered an IC50 in data set [3] of 42.8 µM.
One may read the fraction unbound as free concentration divided by total concentration. Turning to `CC(C)(C)NC(=O)C(c1cccnc1)N(C(=O)c1ccco1)c1ccc(C(C)(C)C)cc1` (stereo not drawn), the results for the IC50 in [4], in [5] and in [6] were over 30 µM, 9.1 µM and over 30 µM, respectively. For the same molecule, the fraction unbound in [7] is 0.033; in data set [8], 0.026.
As to `CC(=O)N[C@H](C(=O)N[C@H](C(=O)N[C@@H](CC(C)C)C(=O)N[C@@H](C[C@@H]1CCNC1=O)C(=O)c1cccs1)[C@@H](C)O)C(C)C`, in [2], the inhibition worked out at 23%.
In data set [9], `Cc1cc2cc(CN(CCc3ccccc3C)C(=O)NCc3ccccc3)c(=O)[nH]c2cc1C` had an IC50 of 17.2 µM.
In data set [10], `OCC1C(COCc2ccccc2)CC1n1cnc2c(Cl)ncnc21` (stereo not drawn) showed an IC50 of 14.5 µM.
On to `Cn1ccc(CN(C(=O)Cn2nnc3ccccc32)c2ccc(NC(=O)C3CC3)cc2)c1`, for which the IC50 in data set [4] amounted to 8.4 µM; in [5] it was 7.2 µM; in data set [6], 7.7 µM; in data set [11] it was 4.6 µM. Moreover, the fraction unbound is 0.048 in data set [7] and 0.106 in [8].
In the case of `O=C(Oc1cncc(Cl)c1)c1cccs1`, the IC50 in data set [12] came to 0.5 µM.
Still for that read-out and setting: then `O=C(Oc1cncc(Cl)c1)c1cc2ccccc2[nH]1`, with 0.065 µM.
For the molecule `CCOC(=O)[C@@H]1OC1C(=O)N(CCC(N)=O)NC(=O)[C@H](Cc1ccccc1)NC(=O)[C@H](CC(C)C)NC(=O)OCc1ccccc1` (stereo partly drawn), in data set [13], the Ratio was 1900 M/s.
By Ki is commonly meant the equilibrium dissociation constant of an inhibitor or competing ligand from its target. Regarding `O=C(On1nnc2ccccc21)c1ccc2[nH]ccc2c1`, the Ki in data set [14] stood at 0.0075 µM.
`COC(=O)c1cc2c(O)cc(C(F)(F)F)cc2o1` had an IC50 in [9] of 4.3 µM.
Still for that read-out and setting: then `O=C(CSc1nc(C2CCCCC2)nc2ccccc12)NCc1ccco1`, with 18.2 µM.
